Test results as given in BigSolDB 2.1.

Nc1cccc(Cl)c1C(=O)O
solubility (mole fraction)
Details	278.15 K	283.15 K	288.15 K	293.15 K	298.15 K	303.15 K	308.15 K	313.15 K	318.15 K	323.15 K
in NMP	0.0744	0.0797	0.0873	0.0958	0.106	0.119	0.135	0.155	0.178	0.204
in acetonitrile	0.00746	0.00991	0.0129	0.0166	0.0208	0.0259	0.0313	0.0377	0.045	0.0541
in cyclohexane	–	4.1e-05	6e-05	8.7e-05	0.000115	0.000155	0.000205	0.000269	0.000344	0.000445
in ethanol	0.0284	0.0346	0.0408	0.049	0.0584	0.0702	0.0831	0.1	0.119	0.141
in ethyl acetate	0.0257	0.0303	0.036	0.0423	0.051	0.0612	0.0731	0.0867	0.103	0.122
in ethylene glycol	0.0133	0.0175	0.0225	0.0283	0.0349	0.0423	0.0505	0.0601	0.071	0.0848
in isobutanol	0.0106	0.0145	0.0189	0.0244	0.0308	0.0385	0.047	0.057	0.0677	0.0809
in isopropanol	0.0195	0.0231	0.0276	0.0332	0.0399	0.0479	0.0571	0.0676	0.0819	0.0982
in n-butanol	0.0172	0.0208	0.0248	0.03	0.0365	0.0439	0.053	0.0642	0.0786	0.0958
in n-heptanol	0.00987	0.0135	0.0177	0.0225	0.0276	0.0338	0.0414	0.0507	0.0625	0.0776
in n-octanol	0.00855	0.0118	0.0154	0.0194	0.0241	0.0301	0.0376	0.0476	0.0606	0.0753
in n-propanol	0.0203	0.0248	0.0299	0.0353	0.0416	0.0498	0.0592	0.0718	0.0859	0.103
in toluene	0.00446	0.00515	0.00616	0.0075	0.00924	0.0112	0.0133	0.0156	0.0179	0.0207
in water	0.000571	0.000674	0.000801	0.000965	0.00116	0.0014	0.00169	0.00203	0.00247	0.00297
